Entries after “also recorded” stand apart in the source; their conditions may differ. Like-named read-outs stand apart in the source and are kept apart here. One block for each compound: values may come before it.
Columns and labels:
[1] = Stability determination of crystal forms (HPLC); assay type: physicochemical; conditions: for stability (in words): HPLC detection results
Experimental: Samples and experimental preparation: The amorphous form of the compound represented by Formula I and the crystal form A, maleate crystal form 1, maleate crystal form 2, phosphate crystal form 1 and adipate crystal form 1 of the compound represented by Formula I in appropriate amounts were tested for stability. Samples were taken at different time points separately for HPLC. The packages were polyester/aluminum/polyamide/polyethylene pharmaceutical composite films and bags.

[2] = Hygroscopicity determination by dynamic vapor sorption (DVS); assay type: physicochemical; conditions: for Weight Gain for Vapor Absorption: DVS, 0% RH to 80% RH; for hygroscopicity (in words): under the test conditions
Experimental: The hygroscopicity of samples (which are multiple crystal forms shown in Table 14) was determined by a dynamic vapor sorption (DVS) meter. The samples were detected for changes of weight gains due to vapor absorption within the range of 0% RH (relative humidity) to 80% RH.

[3] = system: human liver cancer cells Hep3B; assay: Cell proliferation assay (CellTiter-Glo); assay type: cell-based; conditions: 96 hrs incubation, CTG, read-out: IC50 of the Compound on Hep3B Cells
Experimental: The effect of the compound of the present disclosure on the proliferation of human liver cancer cells Hep3B cells was evaluated by an in vitro cell assay. CELL TITER-GLO (CTG) luminescence was used as a detection method in the assay, which can detect the number of living cells by quantitatively determining ATP. Since ATP participates in a variety of enzymatic reactions in organisms, the ATP is an indicator of the metabolism of living cells and its content directly reflects the number of cells and the cell state of cells. In the assay, CellTiter-Glo™ reagent was added to a cell culture medium to measure a luminescence value, the luminescence value is directly proportional to the amount of ATP, and ATP is positively correlated to the number of living cells, so cell viability can be inspected by detecting the ATP content.
A bottle of Hep3B cells in a logarithmic growth phase was taken, the cells were counted after digestion and resuspension and then inoculated into a 96-well plate after the cell density was adjusted, each well inoculated with 180 μL (1500 cells/well), and the plate was incubated for 24 hrs in a 37° C., 5% CO2 incubator. • (2) Administration to cells […]
An inhibition rate was calculated according to the luminescence value. […]

[4] = system: human liver cancer cells Hep3B xenograft; assay: Hep3B xenograft tumor model; assay type: in vivo
Experimental: BALB/c nu/nu female mice were inoculated with 5×10^6 human liver cancer cells Hep3B subcutaneously in the right anterior scapula, where a volume ratio of a cell suspension to matrigel was 1:1 (0.2/mL/mouse). When an average tumor volume was 158 mm^3, the mice were randomly grouped according to a tumor size. The treatment group was administered with a solution of a to-be-tested compound prepared with an appropriate solvent, and the solvent control group was administered with a blank solvent. During treatment, the tumor volume was measured twice a week, and the tumor weight was determined after a last dose to determine the activity of the compound. A tumor growth inhibition (TGI) rate (%) was calculated by comparing the tumor volumes and weights of the treatment group and the solvent control group. Body weight measurement, as the routine determination of toxicity, has the same frequency as tumor volume measurement.

[5] = Pharmacokinetic test of crystal forms in SD rats, oral; assay type: in vivo; conditions: 50 mg/kg, suspension in 0.5% CMC-Na
Experimental: Drug preparation: A maleate crystal form 1, a phosphate crystal form 1 and an adipate crystal form 1 were weighed separately, and each crystal form was prepared in a 0.5% CMC-Na solution into a to-be-tested suspension, where the final concentration of each compound was 5 mg/mL.
Test animals: SD rats were randomly divided into three groups, each group including three male rats, and the three groups were called a maleate group, a phosphate group and an adipate group, separately.
Administration and sample collection: The SD rats in each group were subjected to oral administration at a dosage of 50 mg/kg. Blood collection time: Blood samples were collected in EDTA-K pre-anticoagulation tubes after 0 h (before administration), 0.25 h, 0.5 h, 1 h, 2 hrs, 4 hrs, 7 hrs and 24 hrs. The plasma in each sample was isolated by being centrifuged at 4000 rpm for 10 min at 4° C. Plasma samples were collected and stored at −80° C. for analytical use. The concentration of a to-be-tested compound in plasma samples was analyzed by AB4000 API LC/MS in combination with HPLC, and the pharmacokinetic parameter of the to-be-tested compound was obtained by analyzing the plasma concentration-time data of each animal.

[6] = 40° C./75% RH, packaged, day 5, listed as Crystal form A of the compound represented by Formula I
[7] = 40° C./75% RH, packaged, day 20
[8] = day 0, listed as Crystal form A of the compound represented by Formula I
[9] = 40° C./75% RH, packaged, day 12

Compound: C=CC(=O)N[C@H]1CCOC[C@H]1Nc1ncc2c(n1)-c1cc(C)cnc1N(c1c(Cl)c(OC)cc(OC)c1Cl)C2 [Amorphous form of the compound represented by Formula I]
API Content ([1]; 25° C./75% RH, open, day 10): 97.21%
Changed Maximum Single Impurity ([1]; 25° C./75% RH, open, day 10): 1.26%
API Content ([1]; 40° C., open, day 10): 97.45%
Changed Maximum Single Impurity ([1]; 40° C., open, day 10): 1.15%
stability (in words) [1]: poor stability
API Content ([1]; day 0): 98.30%
Changed Maximum Single Impurity ([1]; day 0): 0.41%
Weight Gain for Vapor Absorption [2]: 6.53%
hygroscopicity (in words) [2]: hygroscopic

Compound: C=CC(=O)N[C@H]1CCOC[C@H]1Nc1ncc2c(n1)-c1cc(C)cnc1N(c1c(Cl)c(OC)cc(OC)c1Cl)C2 [Compound represented by Formula I, N-((3S,4S)-3-((6-(2,6-dichloro-3,5-dimethoxyphenyl)-9-methyl-5,6-dihydropyrimido[5,4-c][1,8]naphthyridin-2-yl)amino)tetrahydro-2H-pyran-4-yl)acrylamide]
IC50 [3]: 5.1 nM
inhibition rate on the tumor volume growth of Hep3B ([4]; 50 mg/kg BID×14): 73.02%
inhibition rate on the tumor weight growth of HepB ([4]; 50 mg/kg BID×14): 84.76%
inhibition rate on the tumor volume growth of Hep3B ([4]; 100 mg/kg BID×14): 86.26%
inhibition rate on the tumor weight growth of HepB ([4]; 100 mg/kg BID×14): 92.27%
inhibition rate on the tumor volume growth of Hep3B ([4]; 200 mg/kg BID×14): 90.26%
inhibition rate on the tumor weight growth of HepB ([4]; 200 mg/kg BID×14): 98.15%
body weight loss (routine determination of toxicity) ([4]; during the entire assay, treatment doses 50-200 mg/kg BID×14): none of the animals administered with the compound represented by Formula I showed an obvious weight loss

Compound: C=CC(=O)N[C@H]1CCOC[C@H]1Nc1ncc2c(n1)-c1cc(C)cnc1N(c1c(Cl)c(OC)cc(OC)c1Cl)C2 [Crystal form A]
API Content ([1]; 25° C./92.5% RH, open, day 20): 99.32%
Changed Maximum Single Impurity ([1]; 25° C./92.5% RH, open, day 20): 0.17%
API Content [1, 6]: 99.25%
Changed Maximum Single Impurity [1, 6]: 0.19%
API Content [1, 7]: 99.47%
Changed Maximum Single Impurity [1, 7]: 0.17%
API Content ([1]; 60° C., open, day 12): 99.14%
Changed Maximum Single Impurity ([1]; 60° C., open, day 12): 0.24%
stability (in words) [1]: relatively good stability
API Content [1, 8]: 99.16%
Changed Maximum Single Impurity [1, 8]: 0.19%
Weight Gain for Vapor Absorption [2]: 0.03%
hygroscopicity (in words) [2]: non-hygroscopic; also recorded: low hygroscopicity

Weight Gain for Vapor Absorption [2]: 0.07%
hygroscopicity (in words) [2]: non-hygroscopic
Compound: C=CC(=O)NC1CCOCC1Nc1ncc2c(n1)-c1cc(C)cnc1N(c1c(Cl)c(OC)cc(OC)c1Cl)C2.O=C(O)C(O)C(O)C(=O)O [L-tartrate crystal form 1]

API Content ([1]; 40° C./75% RH, packaged, day 5): 99.48%
Changed Maximum Single Impurity ([1]; 40° C./75% RH, packaged, day 5): 0.26%
API Content [1, 9]: 99.34%
Changed Maximum Single Impurity [1, 9]: 0.28%
stability (in words) [1]: relatively good stability
API Content ([1]; day 0): 99.62%
Changed Maximum Single Impurity ([1]; day 0): 0.2%
AUClast [5]: 8355 ng·h/mL
Cmax [5]: 2713 ng/mL
hygroscopicity (in words) [2]: low hygroscopicity
Compound: C=CC(=O)NC1CCOCC1Nc1ncc2c(n1)-c1cc(C)cnc1N(c1c(Cl)c(OC)cc(OC)c1Cl)C2.O=C(O)C=CC(=O)O (centres unmarked) [Maleate crystal form 1]

API Content ([1]; 25° C./75% RH, open, day 10): 98.61%
Changed Maximum Single Impurity ([1]; 25° C./75% RH, open, day 10): 1.1%
API Content ([1]; 40° C., open, day 10): 99.32%
Changed Maximum Single Impurity ([1]; 40° C., open, day 10): 0.48%
stability (in words) [1]: poor stability
API Content ([1]; day 0): 99.63%
Changed Maximum Single Impurity ([1]; day 0): 0.29%
Weight Gain for Vapor Absorption [2]: 6.64%
hygroscopicity (in words) [2]: hygroscopic
Compound: C=CC(=O)NC1CCOCC1Nc1ncc2c(n1)-c1cc(C)cnc1N(c1c(Cl)c(OC)cc(OC)c1Cl)C2.O=C(O)C=CC(=O)O (centres unmarked) [Maleate crystal form 2]

Compound: C=CC(=O)N[C@H]1CCOC[C@H]1Nc1ncc2c(n1)-c1cc(C)cnc1N(c1c(Cl)c(OC)cc(OC)c1Cl)C2 [Phosphate crystal form 1]
API Content ([1]; 40° C./75% RH, packaged, day 5): 99.39%
Changed Maximum Single Impurity ([1]; 40° C./75% RH, packaged, day 5): 0.15%
API Content [1, 9]: 99.56%
Changed Maximum Single Impurity [1, 9]: 0.11%
stability (in words) [1]: relatively good stability
API Content ([1]; day 0): 99.32%
Changed Maximum Single Impurity ([1]; day 0): 0.15%
AUC(0-t) ([5]; male, rat, plasma): 6890 ng·h/mL
Cmax ([5]; male, rat, plasma, read-out: Cmax): 1140 ng/mL
Weight Gain for Vapor Absorption [2]: 0.19%
hygroscopicity (in words) [2]: non-hygroscopic; also recorded: low hygroscopicity

Reference: patent US20240174681A1, “SALT AND CRYSTALLINE FORMS OF FGFR4 INHIBITOR AND USES THEREOF” (BETTA PHARMACEUTICALS CO., LTD, priority 2020, published 2024)
